The subject of test [1] is SW-480 human colon cancer transplanted tumors. Nature of the test: nude mice transplanted tumor model, SW-480. It counts as in vivo, BALB/c nude mice. The conditions noted are these: 5-FU 18 mg/kg, tail vein, twice a week. As to the method:
The […] was resuscitated with liquid nitrogen and cultured in 5A medium containing 10% fetal bovine serum; the cells were expanded and cultured in culture flasks and collected by digestion after reaching the required cells number; the cells were diluted using 5A medium containing 10% fetal bovine serum into suspensions of 250 million cell/ml which was inoculated subcutaneously to the axilla of the right forelimb of each mouse with 0.2 ml per mouse after routine sterilization. When growing to tumors to about 1 g of tissue mass, the animal was sacrificed and the tumor was cut into 2-3 cubic millimeter pieces and implanted subcutaneously into nude mice for passaging by catheter method, and two consecutive passages were performed. HT-29, SW-480, DLD-1 and RKO cell lines listed in the table were modeled and experimented using the same method. Waiting for the tumors of the passaged tumor-bearing nude mice grown to about 1 g, the tumors were transplanted for modeling via the method described above, and the animals were randomly grouped and administration was started on the next day after transplantation.
The animals were grouped using the random grouping method, 8 animals each group.
The route of administration is via tail vein injection, and the amount of administration for each animal was determined based on the latest body weight prior to administration. […]

For test [2], the system named is S180 mouse fibrosarcoma cells. Nature of the test: murine S180 sarcoma residual carcinoma model. The conditions noted are these: 5-FU 18 mg/kg. It counts as in vivo, Kunming mice. As to the method: S180 mouse fibrosarcoma cells were amplified by culturing in DMEM high sugar medium containing 10% FBS. The cells were ready for the next step when entering the logarithmic growth phase. The cells at logarithmic growth phase were collected by centrifugation and counted. The cell concentration was adjusted, and inoculated at 0.2 ml/mouse into the peritoneal cavity of Kunming mice as the first-generation breeder mouse. After rearing for one week, the ascites in peritoneal cavity of the first-generation breeder mouse were taken for centrifugation and count, the cell concentration was adjusted, and inoculated at 0.2 ml/mouse into the peritoneal cavity of Kunming mice as the second-generation breeder mouse, and after rearing for another week, the ascites in peritoneal cavity of the second-generation breeder mouse were taken for centrifugation and count, the cell concentration was adjusted, and inoculated at 0.2 ml/mouse into subcutaneous back of Kunming mice. The whole inoculation process was carried out aseptically in the ultra-clean workstation. After inoculation, the growth of mice was observed, and the mice were screened according to their growth state, and after screening, the mice were grouped randomly and administered.

The test system of test [3] is Mouse lung cancer Lewis cells. Nature of the test: mouse Lewis lung cancer residual cancer model. The format is in vivo, C57BL/6 mice. The conditions noted are these: 5-FU 18 mg/kg. As to the method: Mouse lung cancer Lewis cells were amplified by culturing in DMEM high sugar medium containing 10% FBS. The cells were ready for the next step when entering the logarithmic growth phase. The cells at logarithmic growth phase were collected by centrifugation and counted. The cell concentration was adjusted and inoculated subcutaneously at 0.2 ml/mouse in the right axilla of C57BL/6 mice as breeder mouse. After grew to over 1000 mm^3, the tumors were removed aseptically, weighed, diluted by adding sodium chloride injection with mass to volume ratio of 1:4 and […], after conventional sterilization, inoculated subcutaneously to the axilla of the right forelimb of each mouse with 0.2 ml per mouse for passaging. After grew to over 1000 mm^3, the second generation tumors were taken aseptically, weighed, diluted by adding sodium chloride injection with mass to volume ratio of 1:4 and ground, and then inoculated subcutaneously to the back of mice at 0.2 ml per mouse after routine sterilization. The growths of mice were observed after inoculation, and screened according to the growth state of mice, and after screening, the mice were grouped randomly and administered.

“And” between values parts separate entries of the source, which are not always exact repeats. Equal values may be shown once.

As for `O=c1[nH]cc(F)c(=O)[nH]1` [Example 5-FU, Fluorouracil], the Inhibition rate was 57.91% in test [1]; 85.30% and 66.85% in test [2]. The Tumor weight in test [1] was 0.43 g; in test [3], 1.29 g and 1.24 g.

Values taken from patent US12533373B2, “β-glucan composition and use therefor” (Qingdao Conson Pharmaceutical Co., Ltd., priority 2019, dated 2026).
